In article PMC9698340, “Discovery and SAR Study of Quinoxaline–Arylfuran Derivatives as a New Class of Antitumor Agents” (Pharmaceutics, 2022):

Tests used:
HeLa cells [1] = assay: Wound healing assay; type: cell-based, human; settings: after 48 h, control 55.7%
Description: A total of 1 × 10^6 cells/well in the logarithmic growth phase were seeded in 6-well plates. When cell density reached 80 to 90%, a scratch was made in the monolayer in the middle of the well with a 200 μL pipette tip. The tip was kept perpendicular to the bottom of the well to obtain a straight gap. The detached cells were washed away and removed. The healing of the wound within the same scraped line was then observed and photographed at the indicated time points (0 h, 24 h, 48 h). Each experiment was repeated three times.

HeLa cells [2] = assay: Hoechst-33342 staining; type: cell-based, human; settings: 24 h, vs control
Description: HeLa cells (4 × 10^5 cells) were incubated in a 6-well plate for 12 h. The cells were then treated with QW12 at the indicated concentrations for 24 h. The cells were washed twice with PBS. The cells were then incubated with Hoechst-33342 (10 μg/mL) for 5 min at room temperature in darkness. After incubation, stained cells were observed under an inverted phase contrast microscope (OLYMPUS IX73, Tokyo, Japan).

recombinant STAT3 = recombinant STAT3 (Homo sapiens, UniProt P40763); assay: Biolayer interferometry (BLI) assay; settings: His-tagged STAT3 on SSA biosensors, QW12 5.2 to 333 μM, read-out: binding affinity (KD) to STAT3
Description: BLI assays were performed using the BLItz system (Sartorius). Biosensors were first equilibrated 10 min in 1X kinetic buffer (Sartorius) consisting of PBS with 0.02% Tween20 and 0.1% BSA. Subsequently, depending on the assay, STAT3 was loaded onto the corresponding biosensor at a concentration of 1.9 µg/µL, as indicated in the Sartorius biosensor datasheets, for an appropriate time interval. The concentration range for the associating protein was chosen, when possible, based on the KD value available from the literature or experimentally determined for all scenarios wherein KD values were unknown. The data recorded were analyzed by means of the BLItz software and MATLAB to extrapolate the kinetic parameters. All association and dissociation curves were fitted by a single exponential function. Each acquisition was repeated twice to confirm reproducibility.
To confirm whether QW12 is a direct STAT3 inhibitor, a BLI (biolayer interferometry) analysis was performed. Briefly, recombinant STAT3 with a His tag was immobilized on SSA biosensors, and the dissociation constants were determined by measuring the binding to serial dilutions of QW12 at concentrations ranging from 5.2 to 333 μM (Figure 9A).

HeLa cells [3] = assay: Intracellular ROS, DCFH-DA flow cytometry; type: cell-based, human; settings: 10 and 40 μM, 6 h
Description: Intracellular reactive oxygen species (ROS) were measured by 2,7-dichlorofluorescein diacetate (DCFH-DA) staining. HeLa cells were treated with QW12 at 10 μM and 40 μM for 6 h. After indicated treatment, cells were harvested and washed with PBS. Cells were incubated with 10 μM DCFH-DA at 37 °C for 30 min. Cells were washed twice, resuspended with PBS, and subjected to flow cytometry.

Sequence of recombinant STAT3 (P40763 whole entry, species assumed): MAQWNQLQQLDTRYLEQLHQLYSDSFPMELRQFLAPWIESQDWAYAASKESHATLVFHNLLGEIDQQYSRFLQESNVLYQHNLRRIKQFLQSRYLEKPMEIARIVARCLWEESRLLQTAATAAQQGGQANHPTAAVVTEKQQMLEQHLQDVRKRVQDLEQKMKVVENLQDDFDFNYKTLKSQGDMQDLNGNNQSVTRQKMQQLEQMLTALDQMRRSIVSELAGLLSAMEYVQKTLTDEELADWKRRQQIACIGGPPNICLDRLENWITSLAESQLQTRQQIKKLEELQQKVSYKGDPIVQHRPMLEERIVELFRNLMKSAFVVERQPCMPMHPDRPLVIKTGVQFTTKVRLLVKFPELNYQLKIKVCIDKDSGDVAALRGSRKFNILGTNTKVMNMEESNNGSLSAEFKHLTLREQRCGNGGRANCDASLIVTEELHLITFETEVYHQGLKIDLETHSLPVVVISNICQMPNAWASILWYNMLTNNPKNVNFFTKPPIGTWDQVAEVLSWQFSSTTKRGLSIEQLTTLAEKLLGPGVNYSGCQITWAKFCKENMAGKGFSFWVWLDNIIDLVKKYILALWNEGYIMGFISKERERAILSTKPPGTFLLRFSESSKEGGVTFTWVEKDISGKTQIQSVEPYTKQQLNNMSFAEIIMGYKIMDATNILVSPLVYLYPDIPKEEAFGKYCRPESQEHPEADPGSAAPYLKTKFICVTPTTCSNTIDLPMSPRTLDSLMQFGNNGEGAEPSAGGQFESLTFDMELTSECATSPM

Structure (SMILES): COc1cc(-c2ccc(/C=N/NC(=O)c3ccc(O)cc3)o2)c(OC)cc1-c1ccc2nccnc2c1 [QW12, (E)-N’-((5-(2,5-dimethoxy-4-(quinoxalin-6-yl)phenyl)furan-2-yl)methylene)-4-hydroxybenzohydrazide]
- rate of scratch closure (HeLa cells [1]; 10 μM): 28.0%
- rate of scratch closure (HeLa cells [1]; 40 μM): 17.2%
- nuclear morphology (Hoechst staining) (HeLa cells [2]): significant apoptotic morphological characteristics were observed
- Kd (recombinant STAT3): 67.3 µM
- effect on ROS accumulation (HeLa cells [3]): stimulates ROS accumulation in a dose-dependent manner
